Columns and labels:
Xenopus oocytes = assay: Xenopus oocyte maturation assay; assay type: cell-based; conditions: for Xenopus Oocyte Maturation Assay, Without Progesterone: no progesterone, activator = able to induce GVBD in the absence of added progesterone; for Xenopus Oocyte Maturation Assay, With Progesterone: test compound 100 μM, progesterone 2 μg/mL, inhibitor = slowed rate of progesterone-dependent GVBD by 20% or more
Description: An in vivo Xenopus oocyte maturation assay was used to screen the compounds for their ability to modulate the activity of cell cycle control proteins, mRNA translational control proteins, and/or proteins involved in signaling pathways. In this assay, oocyte maturation (or cell cycle progression) is monitored phenotypically using an image capture system. Oocyte maturation is correlated with the appearance of a white spot at the animal pole of the darkly pigmented animal hemisphere of the oocyte. The white spot appears because the germinal vesicle (i.e., the large nucleus of the oocyte) migrates to the animal pole prior to meiotic germinal vesicle breakdown (GVBD).
Immature stage VI Xenopus oocytes were transferred to wells of a flat bottom 96-well plate containing about 178 μL of L15 culture media. The oocytes were transferred using wide mouth 200 μL pipette tips with minimal transfer of culture medium (e.g., about 20 μL). Generally, the oocytes oriented with the pigmented animal hemisphere facing up due to the higher density of the yolk-containing vegetal hemisphere. Incorrectly orientated oocytes were gently manipulated using a drawn-out capillary tube to rotate them into the correct orientation.
Forty-four test compounds were dissolved in DMSO to make 100× stock solutions. The test compounds were added to the appropriate wells at a final concentration of 100 μM (and 1% DMSO). Control oocytes were exposed to 1% DMSO only (generally the first and last wells of a plate contained the untreated, control oocytes). Sixteen hours later, progesterone was added to each well to stimulate progesterone-dependent oocyte maturation. For this, 2 μL of 1000× stock solution (2 mg/mL in ethanol) was added to the appropriate wells to yield a final concentration of 2 μg/mL. The rate of maturation in the control oocytes (i.e., those in the first and last wells) served as an intra-assay control for time taken for progesterone addition across the multi-well plate.
The 96-well plate was imaged from above (i.e., top-down) using a 36-megapixel Nikon D800 SLR camera with an AF Micro Nikkor 60 mm, f/2.8 lens, mounted on a dedicated copy stand (with adjustable flanking light sources). The plate was imaged prior to and after addition of progesterone (i.e., images were taken at regular intervals over a period of 7 hours). The high resolution images were digitally zoomed after capture to analyze the maturation status of oocytes in individual wells of the plate. Test compounds that slowed the rate of progesterone-dependent GVBD by 20% or more were classified as inhibitors (assessed relative to the time 50% of the population of control, vehicle treated oocytes had undergone GVBD (GVBD50)).
To determine whether the test compounds were able to activate oocyte maturation in a progesterone-independent manner, oocytes were incubated in the presence of the test compound (dissolved in DMSO) or DMSO only. The oocytes were imaged at regular intervals for the evidence of GVBD, or subsets of oocytes were removed at predetermined times and the activation status of key cell cycle control proteins (e.g., pMAP kinase, pCcd2, etc.) was analyzed by Western blotting. For example, activation of pMAP kinase is associated with increased phosphorylation whereas activation of pCdc2 is associated with decreased phosphorylation. Compounds were classified as an activator if they were able to induce GVBD in the absence of added progesterone. Further, compounds were classified as accelerators if they accelerated the rate of progesterone-stimulated GVBD, but were unable to induce GVBD in the absence of progesterone. The criteria for test compounds to be considered accelerators is that they must increase the rate of progesterone-dependent GVBD by 20% or more at one dose (assessed relative to the time 50% of the population of control, vehicle treated oocytes had undergone GVBD (GVBD50)).

CCRF-CEM = conditions: for GI50: CCRF-CEM, Leukemia
HL-60(TB) = conditions: for GI50: Leukemia
MOLT-4 = conditions: for GI50: MOLT-4, Leukemia
RPMI-8226 = conditions: for GI50: RPMI-8226, Leukemia
HOP-62 = conditions: for GI50: HOP-62, Lung Cancer
NCI-H23 = conditions: for GI50: NCI-H23, Lung Cancer
NCI-H460 = conditions: for GI50: NCI-H460, Lung Cancer
HCT-116 = conditions: for GI50: HCT-116, Colon Cancer
KM12 = conditions: for GI50: KM12, Colon Cancer
SNB-19 = conditions: for GI50: SNB-19, CNS Cancer
SNB-75 = conditions: for GI50: SNB-75, CNS Cancer
U251 = conditions: for GI50: U251, CNS Cancer
M14 = conditions: for GI50: M14, Melanoma
SK-MEL-5 = conditions: for GI50: SK-MEL-5, Melanoma
UACC-257 = conditions: for GI50: UACC-257, Melanoma
OVCAR-4 = conditions: for GI50: OVCAR-4, Ovarian Cancer
SN12C = conditions: for GI50: SN12C, Renal Cancer
DU-145 = conditions: for GI50: DU-145, Prostate Cancer
BT-549 = conditions: for GI50: BT-549, Breast Cancer
TK-10 = assay: NCI 60-cell line five dose screen: TK-10; conditions: TK-10, Renal Cancer
RXF 393 = assay: NCI 60-cell line five dose screen: RXF 393; conditions: RXF 393, Renal Cancer

Substance: 13-(2-iodoimidazole)parthenolide [PNR-5-65]
- Xenopus Oocyte Maturation Assay, Without Progesterone (Xenopus oocytes): Not an activator or inhibitor
- Xenopus Oocyte Maturation Assay, With Progesterone (Xenopus oocytes): Not an activator or inhibitor
- CC50 (CCRF-CEM): 79.6 µM
- GI50 (CCRF-CEM): 6.13 µM
- GI50 (HL-60(TB)): 6.9 µM
- CC50 (MOLT-4): 97.9 µM
- GI50 (MOLT-4): 19.6 µM
- CC50 (RPMI-8226): > 100 µM
- GI50 (RPMI-8226): 17 µM
- CC50 (HOP-62): > 100 µM
- GI50 (HOP-62): 47.4 µM
- CC50 (NCI-H23): > 100 µM
- GI50 (NCI-H23): 23.7 µM
- CC50 (NCI-H460): > 100 µM
- GI50 (NCI-H460): 30.1 µM
- CC50 (HCT-116): 49 µM
- GI50 (HCT-116): 11.8 µM
- CC50 (KM12): > 100 µM
- GI50 (KM12): 43.2 µM
- CC50 (SNB-19): > 100 µM
- GI50 (SNB-19): > 100 µM
- CC50 (SNB-75): > 100 µM
- GI50 (SNB-75): 19.3 µM
- CC50 (U251): > 100 µM
- GI50 (U251): 36.7 µM
- CC50 (M14): 65.6 µM
- GI50 (M14): 16.5 µM
- CC50 (SK-MEL-5): 95.6 µM
- GI50 (SK-MEL-5): 18.5 µM
- CC50 (UACC-257): 53.9 µM
- GI50 (UACC-257): 12 µM
- CC50 (OVCAR-4): 60 µM
- GI50 (OVCAR-4): 13.2 µM
- CC50 (SN12C): 84.1 µM
- GI50 (SN12C): 17.7 µM
- CC50 (DU-145): 68.3 µM
- GI50 (DU-145): 18.8 µM
- CC50 (BT-549): 55.3 µM
- GI50 (BT-549): 15.9 µM

Substance: (E)-13-(3-thiopheno)parthenolide [PNR-5-53]
- Xenopus Oocyte Maturation Assay, Without Progesterone (Xenopus oocytes): Not an activator or inhibitor
- Xenopus Oocyte Maturation Assay, With Progesterone (Xenopus oocytes): Not an activator or inhibitor
- CC50 (CCRF-CEM): > 100 µM
- GI50 (CCRF-CEM): 19.1 µM
- GI50 (HL-60(TB)): 21.7 µM
- CC50 (HL-60(TB); read-out: LC50, Leukemia): 99.9 µM
- CC50 (MOLT-4): > 100 µM
- GI50 (MOLT-4): 25.7 µM
- CC50 (RPMI-8226): > 100 µM
- GI50 (RPMI-8226): 19.7 µM
- CC50 (HOP-62): > 100 µM
- GI50 (HOP-62): 35.8 µM
- CC50 (NCI-H23): > 100 µM
- GI50 (NCI-H23): 23 µM
- CC50 (NCI-H460): > 100 µM
- GI50 (NCI-H460): 29.3 µM
- CC50 (HCT-116): > 100 µM
- GI50 (HCT-116): 28.3 µM
- CC50 (KM12): 86.7 µM
- GI50 (KM12): 20.4 µM
- CC50 (SNB-19): > 100 µM
- GI50 (SNB-19): 47.6 µM
- CC50 (SNB-75): > 100 µM
- GI50 (SNB-75): 21.5 µM
- CC50 (U251): > 100 µM
- GI50 (U251): 21.7 µM
- CC50 (M14): > 100 µM
- GI50 (M14): 20.5 µM
- CC50 (SK-MEL-5): 60.4 µM
- GI50 (SK-MEL-5): 16.3 µM
- CC50 (UACC-257): > 100 µM
- GI50 (UACC-257): 16.6 µM
- CC50 (OVCAR-4): > 100 µM
- GI50 (OVCAR-4): 24.3 µM
- CC50 (SN12C): > 100 µM
- GI50 (SN12C): 25.8 µM
- CC50 (DU-145): > 100 µM
- GI50 (DU-145): 25.7 µM
- CC50 (BT-549): 88.2 µM
- GI50 (BT-549): 20.1 µM
- GI50 (TK-10): 34.7 µM
- CC50 (TK-10; read-out: LC50): > 100 µM
- GI50 (RXF 393): 18.1 µM
- CC50 (RXF 393; read-out: LC50): > 100 µM

— patent US20160083397A1, “PARTHENOLIDE DERIVATIVES AND THEIR MODULATION OF PROCESSES CONTROLLED BY REGULATED TRANSLATION” (THE BOARD OF TRUSTEES OF THE UNIVERSITY OF ARKANSAS, priority 2013, published 2016)
